# Measurements from US20060179492A1, “Method of inhibiting neural transmission mediated by serotonin-2a and enhancing sensorimotor gating” (The Regents of the University of California, priority 2002, published 2006).
# Where a name gives a salt, the structure may show the parent alone.
# Tests used:
# [1] = tested on: PPI deficits produced by the serotonin-2A agonist DOI; test: DOI-induced disruption of prepulse inhibition (PPI) of the startle reflex; type: in vivo, Sprague Dawley rats; conditions: for startle magnitude (main effect, ANOVA): NT69L versus DOI experiment
# Procedure: (§1) Animals: Ninety-six male Sprague Dawley rats (250-300 grams at testing) were obtained from Harlan Laboratories, San Diego. In the experiments of Example 1, all groups contained an n of 8. Animals were housed in groups of two or three in clear plastic chambers in a climate controlled room on a 12:12 hour light/dark cycle (lights on 7:00 a.m.-7:00 p.m.). The rats were handled prior to testing. All testing occurred during the light phase of the rats' circadian illumination schedule and they were allowed free access to food and water for the extent of the study, except during the actual testing. Behavioral testing was performed between 9:00 am and 4:30 pm beginning 7 days after arrival. All studies described in this publication were carried out in accordance with the “Principles of laboratory and animal care” as described in the Guide for the Care and Use of Laboratory Animals as adopted and promulgated by the National Institutes of Health.
# (§2) Drugs: PD149163 (LysΨ(CH2NH)-Lys-Pro-Trp-tLeu-Leu-OEt) was generously made available by the NIMH Chemical Synthesis and Drug Supply Program, and SR1 International, Menlo Park, Calif. NT69L (N-methyl-Arg-Lys-Pro-L-neo-Trp-tLeu-Leu) was developed at Mayo Clinic, Jacksonville, Fla., as described in Tyler-McMahon et al. 2000. DOI and cirazoline hydrochloride were obtained from Sigma Chemicals, St. Louis, Mo. All drugs used were dissolved in saline.
# (§3) Startle Testing and Test Sessions. Startle testing was performed in four identical startle chambers obtained from San Diego Instruments (San Diego, Calif.). Each chamber consisted of a clear non-restrictive Plexiglass cylinder resting on a Plexiglass platform inside a ventilated and illuminated enclosure housed in a sound-attenuated room. A continuous background noise of 65 dB, as well as the various acoustic stimuli, was produced within each chamber by a high-frequency loudspeaker (Radio Shack Supertweeter, San Diego, Calif.). The whole-body startle response of each animal produced vibrations of the Plexiglass cylinder, which were transduced into analog signals by a piezoelectric unit, mounted underneath the Plexiglass platform (Mansbach et al., 1988). These analog signals were then digitized and stored by an interface unit connected to a microcomputer. Startle amplitude was defined as the degree of motion detected by the piezoelectric unit.
# (§4) The animals were subjected to a 5-minute acclimation to the 65 dB background noise, which continued throughout the session. The acclimation was followed by a 15 minute PPI test session. Five trial types were presented during the test session: 40 msec 120 dB startle pulses (PULSE-ALONE), startle pulses preceded 100 msecs by 20 msec prepulses of either 4, 8, or 12 dB above background, and NO-[…] trials. All trial types were presented in pseudo-random order separated by an average of 15 seconds. In addition, four PULSE-ALONE trials that were not used in the calculation of PPI values were presented at the beginning and at the end of the test session, to habituate animals to the pulse and in order to provide a measure of habituation across the session.
# NT69L versus DOI. Thirty-two drug-naïve rats were administered subcutaneous (SC) injections of the following doses of NT69L, 0 (saline), 0.1, 1, or 2 mg/kg. Thirty minutes later, they were injected SC with either saline or DOI (0.5 mg/kg), a dose known to reliably disrupt PPI. Animals were tested in startle chambers thirty minutes later and PPI measured as described. After one week, animals were tested a second time during which treatment and testing procedures were the same except that rats that previously received DOI received saline and vice versa. The dose of NT69L was kept constant on both test days.
# Data and Statistical Analysis. A startle response was recorded for all stimuli presentations. […]
# [2] = tested on: PPI deficits produced by DOI; conditions: reported by Geyer et al.; cited from earlier work
# [3] = tested on: PPI deficits produced by the alpha-1 adrenergic agonist cirazoline; test: Cirazoline-induced disruption of prepulse inhibition (PPI) of the startle reflex; type: in vivo, Sprague Dawley rats; conditions: for PPI of saline/cirazoline rats versus saline/saline rats: cirazoline 0.7 mg/kg SC
# Procedure: as §1, §2, §3, §4
# PD149163 versus cirazoline. Thirty-two drug-naïve rats were administered SC injections of the following doses of PD149163, 0 (saline), 0.01, 0.1, or 1 mg/kg. Thirty minutes later, they were injected SC with either saline or cirazoline (0.7 mg/kg), a dose known to reliably disrupt PPI. Animals were tested in startle chambers thirty minutes later and PPI measured as described. […]
# BB rats = test: Catalepsy bar test; type: in vivo, Brattleboro rats; conditions: 30 min after SC: haloperidol 1 mg/kg (P<0.001), clozapine 10 or 15 mg/kg, PD149163 1 or 2 mg/kg; versus saline
# Procedure: Doses selected were those that produced the greatest effect in the PPI studies. Thirty minutes after SC injections animals were tested in the using a method described by several other authors (Stanley and Glick, 1976; Costall et al., 1978; Wadenberg, 1996). This method involved placing the forepaws of each rat in an extended position over a pencil that was suspended horizontally 9 cm above the lab bench. The time spent in this position before the animal moved or corrected itself was considered a measure of catalepsy.
# PPI = conditions: sedating psychotropic drug without antipsychotic properties; cited from earlier work
# Brown Norway (BN) rats = test: PPI in Brown Norway rats with low PPI; type: in vivo; conditions: acute administration
# [4] = tested on: alpha-1 adrenergic receptors; conditions: cited from earlier work
# serotonin-2A receptor = serotonin-2A receptor (Homo sapiens, UniProt P28223); conditions: cited from earlier work
# monoamine receptors = conditions: cited from earlier work
# serotonin-2A receptor, sequence (P28223 whole entry): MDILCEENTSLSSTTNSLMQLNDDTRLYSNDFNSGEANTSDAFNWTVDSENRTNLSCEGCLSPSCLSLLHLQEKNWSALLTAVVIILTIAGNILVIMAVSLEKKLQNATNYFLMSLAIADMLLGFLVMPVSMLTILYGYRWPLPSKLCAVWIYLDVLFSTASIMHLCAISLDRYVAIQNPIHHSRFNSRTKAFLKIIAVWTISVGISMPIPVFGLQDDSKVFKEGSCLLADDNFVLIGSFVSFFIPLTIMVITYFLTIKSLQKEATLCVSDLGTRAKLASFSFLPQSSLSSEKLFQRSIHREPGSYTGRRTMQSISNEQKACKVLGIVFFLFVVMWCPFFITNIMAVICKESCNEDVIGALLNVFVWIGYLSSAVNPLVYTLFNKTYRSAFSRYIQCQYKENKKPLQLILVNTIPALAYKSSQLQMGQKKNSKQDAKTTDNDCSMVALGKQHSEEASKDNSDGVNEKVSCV
molecule,measurement,setting,value
"COc1cc(CC(C)N)c(OC)cc1I.Cl (centres unmarked) [DOI, 1-(2,5-dimethoxy-4-iodophenyl)-2-aminopropane hydrochloride]",PPI of saline/DOI rats versus saline/saline rats,"[1]; DOI 0.5 mg/kg SC, P<0.001",significantly decreased PPI
same,"startle magnitude (main effect, ANOVA)",[1],no significant main effect
COc1cccc([C@H](O)C2CCN(CCc3ccc(F)cc3)CC2)c1OC [MDL100907],effect on PPI deficits produced by DOI,[2],antagonize PPI deficits produced by DOI
CN1CC[C@@H]2CN3CCc4cccc(c43)[C@@H]2C1.O=C(O)/C=C/C(=O)O [SDZ SER-082],effect on PPI deficits produced by DOI,[2],do not block DOI-induced PPI deficits
"c1ccc(C2CC2)c(OCC2=NCCN2)c1 [cirazoline, cirazoline hydrochloride]",PPI of saline/cirazoline rats versus saline/saline rats,"[3]; NT69L experiment, P<0.05",significantly decreased PPI
same,PPI of saline/cirazoline rats versus saline/saline rats,"[3]; PD149163 experiment, P<0.01",significantly decreased PPI
CN1CCN(C2=Nc3cc(Cl)ccc3Nc3ccccc32)CC1 [clozapine],catalepsy: time rats remained on the bar,BB rats,no dose of clozapine or PD149163 significantly increased
CN1C(=O)CN=C(c2ccccc2)c2cc(Cl)ccc21 [diazepam],effect on PPI,PPI,decrease rather than facilitate PPI
O=C(CCCN1CCC(O)(c2ccc(Cl)cc2)CC1)c1ccc(F)cc1 [haloperidol],PPI in BN rats,Brown Norway (BN) rats,did not enhance PPI
same,catalepsy: time rats remained on the bar,BB rats,significantly increased the time rats remained on the bar
same,effect on PPI deficits produced by DOI,[2],do not block DOI-induced PPI deficits
O=C(c1ccc(F)cc1)C1CCN(CCn2c(=O)[nH]c3ccccc3c2=O)CC1 [ketanserin],effect on PPI deficits produced by DOI,[2],antagonize PPI deficits produced by DOI
CC(C)NCC(O)COc1cccc2ccccc12 (centres unmarked) [propanolol],effect on PPI deficits produced by DOI,[2],do not block DOI-induced PPI deficits
CCN1CCC[C@H]1CNC(=O)c1c(O)c(Cl)cc(Cl)c1OC [raclopride],effect on PPI deficits produced by DOI,[2],do not block DOI-induced PPI deficits
Cc1nc2n(c(=O)c1CCN1CCC(c3noc4cc(F)ccc34)CC1)CCCC2 [risperidone],effect on PPI deficits produced by DOI,[2],antagonize PPI deficits produced by DOI
N-methyl-Arg-Lys-Pro-L-neo-Trp-tLeu-Leu [NT69L],effect on cirazoline-induced PPI deficits,[3]; NT69L 1 mg/kg SC 30 min before cirazoline 0.7 mg/kg SC,blocked the PPI deficits produced by cirazoline
same,startle versus rats that received cirazoline and saline,"[3]; cirazoline + NT69L 1 mg/kg SC, P<0.05",significantly lower
same,"startle magnitude (main effect, ANOVA)","[3]; cirazoline experiments, PD149163 P<0.05, NT69L P<0.01",significant main effect
same,binding to alpha-1 adrenergic receptors,[4],neither PD149163 or NT69L bind
same,binding to serotonin-2A receptors,serotonin-2A receptor,neither PD149163 or NT69L bind
same,affinity for monoamine receptors,monoamine receptors,minimal affinity
same,PPI versus rats that received DOI/saline,"[1]; NT69L 0.1 mg/kg SC + DOI 0.5 mg/kg SC, P<0.001",significantly greater than PPI exhibited by rats that received DOI/saline
same,PPI versus rats that received DOI/saline,"[1]; NT69L 1 mg/kg SC + DOI 0.5 mg/kg SC, P<0.05",significantly greater than PPI exhibited by rats that received DOI/saline
same,PPI versus rats that received DOI/saline,"[1]; NT69L 2 mg/kg SC + DOI 0.5 mg/kg SC, P<0.01",significantly greater than PPI exhibited by rats that received DOI/saline
same,"startle magnitude (main effect, ANOVA)",[1],no significant main effect
same,effect on DOI-induced PPI deficits,"[1]; all three active doses of NT69L (0.1, 1, 2 mg/kg SC) 30 min before DOI 0.5 mg/kg SC, tested 30 min later",blocked the PPI deficits produced by DOI
